From patent publication US8362000B2, “Azetidinyl diamides as monoacylglycerol lipase inhibitors” (Janssen Pharmaceutica NV, priority 2009, dated 2013) come the findings set out here.

Assay [1] concerns the target T1, mutant MGL (Homo sapiens, UniProt Q99685, L169S/L176S).
T1 sequence (Q99685 1-303 L169S/L176S): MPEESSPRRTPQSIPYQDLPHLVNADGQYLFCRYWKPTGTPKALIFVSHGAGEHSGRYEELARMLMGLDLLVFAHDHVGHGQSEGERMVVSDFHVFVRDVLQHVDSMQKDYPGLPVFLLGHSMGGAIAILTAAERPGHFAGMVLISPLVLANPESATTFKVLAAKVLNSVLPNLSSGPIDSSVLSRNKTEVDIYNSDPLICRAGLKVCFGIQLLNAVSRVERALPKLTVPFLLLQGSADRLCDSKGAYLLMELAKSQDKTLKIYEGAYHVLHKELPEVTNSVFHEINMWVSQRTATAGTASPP
As to the kind of experiment: MGL ThermoFluor assay - mutant. It counts as binding. To be noted: read-out: MGL mutant ThermoFluor Kd.

Assay [2] has as its target T2, purified wild type MGL (wt-MGLL 6H-11-313) (Homo sapiens, UniProt Q99685).
T2 sequence (Q99685 1-303): T1 sequence (Q99685 1-303 L169S/L176S) with S169L, S176L

The target in assay [3] is T3, MGL (Rattus norvegicus, UniProt Q8R431).
T3 construct: one g rat brain was homogenized using a Polytron homogenizer; from tissue; host or cells: rat brain homogenate
T3 sequence (Q8R431 1-303): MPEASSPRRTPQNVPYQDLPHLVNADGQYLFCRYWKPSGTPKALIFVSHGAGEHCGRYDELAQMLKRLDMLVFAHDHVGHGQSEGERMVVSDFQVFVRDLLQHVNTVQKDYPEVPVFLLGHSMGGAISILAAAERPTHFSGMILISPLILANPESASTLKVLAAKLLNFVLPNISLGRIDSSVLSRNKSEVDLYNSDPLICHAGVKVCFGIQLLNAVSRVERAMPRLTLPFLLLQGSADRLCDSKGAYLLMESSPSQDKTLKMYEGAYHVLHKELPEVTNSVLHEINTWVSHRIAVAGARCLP
As to the kind of experiment: 2-AG accumulation assay in rat brain homogenate. It counts as biochemical. The settings on record: rat brain homogenate, 2-AG accumulation as percent of vehicle; for 2-AG accumulation, % of vehicle control at 0.1 µM: compound 0.1 μM, read-out: Rat Brain 2AG % VehCntrl (%) @ 0.1 μM; for 2-AG accumulation, % of vehicle control at 1 µM: compound 1 μM, read-out: Rat Brain 2AG % VehCntrl (%) @ 1 μM; for 2-AG accumulation, % of vehicle control at 10 µM: compound 10 μM, read-out: Rat Brain 2AG % VehCntrl (%) @ 10 μM; for 2-AG accumulation, % of vehicle control at 0.01 µM: compound 0.01 μM, read-out: Rat Brain 2AG % VehCntrl (%) @ 0.01 μM.

Assay [4] deals with CFA-induced paw radiant heat hypersensitivity. As to the kind of experiment: CFA-induced paw radiant heat hypersensitivity. It counts as in vivo, rat. The settings on record: Rattus norvegicus, po, 30 mg/kg p.o., HPβCD, last time point 180 or 300 min. As for the experimental part:
Each rat was placed in a test chamber on a warm glass surface and allowed to acclimate for approximately 10 min. A radiant thermal stimulus (beam of light) was then focused through the glass onto the plantar surface of each hind paw in turn. The thermal stimulus was automatically shut off by a photoelectric relay when the paw was moved or when the cut-off time was reached (20 sec for radiant heat at ˜5 amps). An initial (baseline) response latency to the thermal stimulus was recorded for each animal prior to the injection of complete Freund's adjuvant (CFA). […] Immediately following the post-CFA latency assessment, the indicated test compound or vehicle was administered orally.
The percent reversal (% R) of hypersensitivity was calculated in one of two different ways: 1) using group mean values or 2) using individual animal values. More specifically:
Method 2. For some compounds, the % R of hypersensitivity was calculated separately for each animal according to the following formula: % reversal=[(individual treatment response−individual CFA response)/(individual baseline response−individual CFA response)]×100. Results are given as a mean of the maximum % reversal values calculated for each individual animal.

The mark [5] stands for this setting: ThermoFluor concentration-response.
Setting [6] is: group mean values, read-out: CFA thermal hypersensitivity Method 1: peak % reversal.
The mark [7] stands for this setting: individual animal values, read-out: CFA thermal hypersensitivity Method 2: peak % reversal.
Setting [8] is: ThermoFluor thermal stability binding assay.

Numbering of substitutions follows the chain as printed. pIC50, pKd: −log10 of the molar value. Like-named read-outs stand apart in the source and are kept apart here.

A word on the pKd: it is −log10 of the Kd, conventionally taken in molar units. As usually defined, the pIC50 is the negative decadic logarithm of the IC50, by convention in mol/L. Low readings indicate a high IC50, high ones a low IC50. As to `O=C(c1cscn1)N1CCN(C2CN(C(=O)c3ccc(-c4ccccc4)cc3Cl)C2)CC1` [Cpd 1221], in assay [1] (setting [5]), the pKd is 7.09. The same compound gave a pIC50 in assay [2] of 6.59. Also, in assay [3], the 2-AG accumulation, % of vehicle control at 0.1 µM came out at 198%; the 2-AG accumulation, % of vehicle control at 1 µM came to 198%; the 2-AG accumulation, % of vehicle control at 10 µM was determined as 522%. Further, the inhibition in vivo at 30 mg/kg in assay [4] (setting [6]) was 44.7%. In addition, the inhibition in vivo at 30 mg/kg in assay [4] (setting [7]) is 46.7%.

Take `O=C(c1ccc2c(ccn2-c2ccc(C(F)(F)F)cc2)c1)N1CCN(C2CN(C(=O)c3nccs3)C2)CC1` [Cpd 1338, 5-({4-[1-(1,3-Thiazol-2-ylcarbonyl)azetidin-3-yl]piperazin-1-yl}carbonyl)-1-[4-(trifluoromethyl)phenyl]-1H-indole]: the pKd in assay [1] (setting [5]) was 7.82. The pIC50 in assay [2] was over 8.30. Moreover, the 2-AG accumulation, % of vehicle control at 1 µM in assay [3] was found to be 877%. Besides, in assay [4] (setting [6]), the inhibition in vivo at 30 mg/kg is 86.3%.

In the case of `O=C(c1ccc2c(ccn2-c2ccc(F)cc2F)c1)N1CC(N2CCN(C(=O)c3cscn3)CC2)C1` [Cpd 1139, 1-(2,4-Difluorophenyl)-5-({3-[4-(1,3-thiazol-4-ylcarbonyl)piperazin-1-yl]azetidin-1-yl}carbonyl)-1H-indole], in assay [1] (setting [5]), the pKd is 7.77. The pIC50 in assay [2] is 7.57. For the same compound, the 2-AG accumulation, % of vehicle control at 1 µM in assay [3] was 654%. The inhibition in vivo at 30 mg/kg in assay [4] (setting [6]) amounted to 43.8%.

Turning to `O=C(c1nccs1)N1CCN(C2CN(C(=O)c3ccc(-c4cccc(C(F)(F)F)c4)cc3Cl)C2)CC1` [Cpd 250, 1-(1-{[3-Chloro-3′-(trifluoromethyl)biphenyl-4-yl]carbonyl}azetidin-3-yl)-4-(1,3-thiazol-2-ylcarbonyl)piperazine], the pKd in assay [1] (setting [8]) was 8.77. Further, the pIC50 in assay [2] is over 8.30. In assay [3], the 2-AG accumulation, % of vehicle control at 0.01 µM came to 180% and the 2-AG accumulation, % of vehicle control at 0.1 µM is 472%. For the same compound, the inhibition in vivo at 30 mg/kg in assay [4] (setting [6]) was 41.7%. Besides, in assay [4] (setting [7]), the inhibition in vivo at 30 mg/kg came to 41.9%.

For `O=C(c1ccc2c(ccn2-c2ccc(F)c(F)c2)c1)N1CC(N2CCN(C(=O)c3cscn3)CC2)C1` [Cpd 1363, 1-(3,4-Difluorophenyl)-5-({3-[4-(1,3-thiazol-4-ylcarbonyl)piperazin-1-yl]azetidin-1-yl}carbonyl)-1H-indole], the pKd in assay [1] (setting [5]) was 7.85. This compound also gave a pIC50 in assay [2] of over 8.30. Besides, in assay [3], the 2-AG accumulation, % of vehicle control at 1 µM stood at 628%. Also, the inhibition in vivo at 30 mg/kg in assay [4] (setting [6]) worked out at 69.7%.

Regarding `Cc1nc(-c2cccc(C(F)(F)F)c2)sc1C(=O)N1CC(N2CCN(C(=O)c3cscn3)CC2)C1` [Cpd 485, 1-[1-({4-Methyl-2-[3-(trifluoromethyl)phenyl]-1,3-thiazol-5-yl}carbonyl)azetidin-3-yl]-4-(1,3-thiazol-4-ylcarbonyl)piperazine], the pKd in assay [1] (setting [5]) is 7.59. Moreover, the pIC50 in assay [2] is 6.99. Further, in assay [3], the 2-AG accumulation, % of vehicle control at 0.1 µM turned out to be 208%; the 2-AG accumulation, % of vehicle control at 1 µM was found to be 396%; the 2-AG accumulation, % of vehicle control at 10 µM amounted to 818%. In addition, the inhibition in vivo at 30 mg/kg in assay [4] (setting [6]) was 34.4%. In assay [4] (setting [7]), the inhibition in vivo at 30 mg/kg came out at 32.3%.

`O=C(c1ccc2nc(-c3ccc(C(F)(F)F)cc3)oc2c1)N1CC(N2CCN(C(=O)c3nccs3)CC2)C1` [Cpd 314, 6-({3-[4-(1,3-Thiazol-2-ylcarbonyl)piperazin-1-yl]azetidin-1-yl}carbonyl)-2-[4-(trifluoromethyl)phenyl]-1,3-benzoxazole]: the pKd in assay [1] (setting [8]) was 7.41. For the same compound, the pIC50 in assay [2] is over 8.30. In assay [3], the 2-AG accumulation, % of vehicle control at 0.01 µM was 175%; the 2-AG accumulation, % of vehicle control at 0.1 µM came out at 237%; the 2-AG accumulation, % of vehicle control at 1 µM was found to be 512%; the 2-AG accumulation, % of vehicle control at 10 µM was found to be 553%. In addition, the inhibition in vivo at 30 mg/kg in assay [4] (setting [6]) came to 41%. In assay [4] (setting [7]), the inhibition in vivo at 30 mg/kg is 41.2%.

For the compound `Cc1cc(-c2cccc(C(F)(F)F)c2)ccc1C(=O)N1CC(N2CCN(C(=O)c3nccs3)CC2)C1` [Cpd 239, 1-(1-{[3-Methyl-3′-(trifluoromethyl)biphenyl-4-yl]carbonyl}azetidin-3-yl)-4-(1,3-thiazol-2-ylcarbonyl)piperazine], in assay [1] (setting [8]), the pKd was 8.30. This compound also had a pIC50 in assay [2] of 8.00. Moreover, the 2-AG accumulation, % of vehicle control at 0.01 µM in assay [3] is 153%. The 2-AG accumulation, % of vehicle control at 0.1 µM in assay [3] turned out to be 290%. For the same compound, the inhibition in vivo at 30 mg/kg in assay [4] (setting [6]) was 81.8%; in assay [4] (setting [7]) it was 87.5%.

`O=C(c1ccccc1)N1CCN(C2CN(C(=O)c3ccc(-c4ccc(Cl)c(C(F)(F)F)c4)cc3)C2)CC1` [Cpd 232, 1-(1-{[4′-Chloro-3′-(trifluoromethyl)biphenyl-4-yl]carbonyl}azetidin-3-yl)-4-(phenylcarbonyl)piperazine]: the pIC50 in assay [2] is 7.08. Besides, in assay [3], the 2-AG accumulation, % of vehicle control at 1 µM amounted to 152% and the 2-AG accumulation, % of vehicle control at 10 µM was 427%. Besides, the inhibition in vivo at 30 mg/kg in assay [4] (setting [6]) came out at 9.6%. In addition, the inhibition in vivo at 30 mg/kg in assay [4] (setting [7]) was determined as 8%.

In assay [2], `O=C(c1nccs1)N1CCN(C2CN(C(=O)c3sc4c(F)c(C(F)(F)F)ccc4c3Cl)C2)CC1` [Cpd 650] showed a pIC50 of 8.22. In addition, the 2-AG accumulation, % of vehicle control at 1 µM in assay [3] stood at 960%. The inhibition in vivo at 30 mg/kg in assay [4] (setting [6]) was 29.9%.

With `O=C(c1ccc2oc(-c3ccccc3)nc2c1)N1CC(N2CCN(C(=O)c3nccs3)CC2)C1` [Cpd 317, 2-Phenyl-5-({3-[4-(1,3-thiazol-2-ylcarbonyl)piperazin-1-yl]azetidin-1-yl}carbonyl)-1,3-benzoxazole], in assay [3], the 2-AG accumulation, % of vehicle control at 1 µM is 417%. For the same compound, in assay [4] (setting [6]), the inhibition in vivo at 30 mg/kg was 43%.

On to `O=C(c1ccc2c(cnn2-c2ccc(F)c(F)c2)c1)N1CC(N2CCN(C(=O)c3nccs3)CC2)C1` [Cpd 1106, 1-(3,4-Difluorophenyl)-5-({3-[4-(1,3-thiazol-2-ylcarbonyl)piperazin-1-yl]azetidin-1-yl}carbonyl)-1H-indazole], for which the 2-AG accumulation, % of vehicle control at 1 µM in assay [3] came to 784%. Also, the inhibition in vivo at 30 mg/kg in assay [4] (setting [6]) was determined as 45%.

Turning to `Cc1cn(-c2ccc(F)cc2)c2ccc(C(=O)N3CC(N4CCN(C(=O)c5nccs5)CC4)C3)cc12` [Cpd 1088, 1-(4-Fluorophenyl)-3-methyl-5-({3-[4-(1,3-thiazol-2-ylcarbonyl)piperazin-1-yl]azetidin-1-yl}carbonyl)-1H-indole], the pKd in assay [1] (setting [8]) is 9.00. The 2-AG accumulation, % of vehicle control at 1 µM in assay [3] was 760%. For the same compound, the inhibition in vivo at 30 mg/kg in assay [4] (setting [6]) was determined as 35.3%.

`O=C(c1ccc2c(ccn2-c2ccc(C(F)(F)F)cc2)c1)N1CC(N2CCN(C(=O)c3cscn3)CC2)C1` [Cpd 1359, 5-({3-[4-(1,3-Thiazol-4-ylcarbonyl)piperazin-1-yl]azetidin-1-yl}carbonyl)-1-[4-(trifluoromethyl)phenyl]-1H-indole]: the pKd in assay [1] (setting [5]) was 8.10. The same compound showed a pIC50 in assay [2] of over 8.30. Besides, the inhibition in vivo at 30 mg/kg came out at 5.1% in assay [4] (setting [6]) and 12.7% in assay [4] (setting [7]).
